{"source": "patent US11603570B2", "about": "“Methods for the detection and treatment of leukemias that are responsive to DOT1L inhibition” (MEMORIAL SLOAN KETTERING CANCER CENTER, priority 2013, dated 2023)", "key": {"[1]": {"tested_on": "HOXA9, HOXA10, MEIS1, HOXB3, HOXB4 and HOXB5 mRNA", "experiment": "HOX gene qPCR in Npm1^cA/+Flt3^ITD/+ AML cells", "type": "cell-based, mouse", "conditions": "10 μM, FIG. 14B", "method": "(§1) The effect of DOT1L inhibition on the levels of various HOX genes and HOX-associated genes was evaluated using qPCR."}, "other methyltransferases": {"tested_on": "other methyltransferases", "conditions": "in words; FIG. 1B; cited from earlier work"}, "697": {"tested_on": "697", "experiment": "Cell proliferation, 697", "type": "cell-based", "conditions": "Homo sapiens; non-MLL-translocated line 697; FIG. 2"}, "[2]": {"tested_on": "MLL-translocated cell lines", "conditions": "Daigle; cited from earlier work"}, "MV4-11": {"tested_on": "MV4-11", "experiment": "Cell proliferation, MV4-11", "type": "cell-based", "conditions": "Homo sapiens; MLL-translocated line MV4-11; FIG. 2"}, "[3]": {"tested_on": "HOXA9/MEIS1 transformed cells", "experiment": "Sensitivity of HOXA9/MEIS1 transformed cells", "type": "cell-based, murine"}, "[4]": {"tested_on": "HOXA9, HOXA10, MEIS1, HOXB3, HOXB4 and HOXB5 mRNA", "experiment": "HOX gene qPCR in Npm1^cA/+Rosa^SB/+ AML cells", "type": "cell-based, mouse", "conditions": "10 μM, FIG. 14A", "method": "as §1"}, "Molm-13": {"tested_on": "Molm-13", "experiment": "Cell proliferation, Molm-13", "type": "cell-based", "conditions": "Homo sapiens; MLL-translocated line Molm-13; FIG. 2"}, "Jurkat": {"tested_on": "Jurkat", "conditions": "Daigle, 2011; cited from earlier work"}, "[5]": {"tested_on": "HOXA7, HOXA9, HOXA10, and MEIS1", "experiment": "HOX/MEIS1 mRNA expression in NUP98-NSD1 transformed cells", "type": "cell-based, mouse", "conditions": "10 μM, 7 day treatment; FIG. 5B", "description": "FIG. 5B is a histogram showing mRNA expression of HOXA7, HOXA9, HOXA10, and MEIS1 relative to GAPDH (ddCT)."}, "MUTZ-11": {"tested_on": "MUTZ-11", "experiment": "Proliferation of MLL-PTD cell line MUTZ-11", "conditions": "10 μM, 10-day period; FIG. 3A"}, "[6]": {"tested_on": "Npm1^cA/−Flt3^ITD/+ AML cells", "experiment": "Survival of C57/BL6 mice injected with pre-treated Npm1^cA/−Flt3^ITD/+ cells"}}, "note": "pIC50: −log10 of the molar value. Entries after “also recorded” stand apart in the source; their conditions may differ."}
{"smiles": "CC(C)N(CCCNC(=O)Nc1ccc(C(C)(C)C)cc1)C[C@H]1O[C@@H](n2ccc3c(N)ncnc32)[C@H](O)[C@@H]1O", "note": "[EPZ004777, 1-(3-((((2R,3S,4R,5R)-5-(4-Amino-7H-pyrrolo[2,3-d]pyrimidin-7-yl)-3,4-dihydroxytetrahydrofuran-2-yl)methyl)(isopropyl)amino)propyl)-3-(4-(tert-butyl)phenyl)urea]", "values": [{"measurement": "HOXA9, HOXA10, MEIS1, HOXB3, HOXB4 and HOXB5 mRNA levels", "setting": "[1]", "value": "decreased"}, {"measurement": "HOXA9, HOXA10, MEIS1, HOXB3, HOXB4 and HOXB5 mRNA levels", "setting": "[1]; listed as EPZ00477", "value": "significant decrease"}, {"measurement": "specificity for DOT1L / H3K79me as compared to other methyl transferases", "setting": "other methyltransferases", "value": "highly specific; also recorded: remarkable specificity"}, {"measurement": "pIC50", "setting": "697", "value": 4.46}, {"measurement": "antiproliferative, differentiating, and apoptotic activities toward leukemia cells harboring MLL fusions", "setting": "[2]", "value": "highly selective"}, {"measurement": "pIC50", "setting": "MV4-11", "value": 6.77}, {"measurement": "sensitivity to DOT1L inhibition", "setting": "[3]", "value": "insensitive"}, {"measurement": "HOXA9, HOXA10, MEIS1, HOXB3, HOXB4 and HOXB5 mRNA levels", "setting": "[4]", "value": "decreased"}, {"measurement": "HOXA9, HOXA10, MEIS1, HOXB3, HOXB4 and HOXB5 mRNA levels", "setting": "[4]; listed as EPZ00477", "value": "significant decrease"}, {"measurement": "pIC50", "setting": "Molm-13", "value": 6.14}, {"measurement": "growth of MLL-germline Jurkat cells", "setting": "Jurkat", "value": "unaffected"}, {"measurement": "mRNA expression of HOXA7, HOXA9, HOXA10, and MEIS1", "setting": "[5]", "value": "substantial decrease; also recorded: strong inhibitory effect"}, {"measurement": "proliferation (cell counts)", "setting": "MUTZ-11", "value": "significantly inhibited"}, {"measurement": "day on which animals start dying", "setting": "[6]; cells treated with 10 μM, FIG. 13 A", "value": 31, "unit": "days"}, {"measurement": "survival time", "setting": "[6]; treatment of the AML cells with the DOT1L inhibitor", "value": "prolonged survival time"}]}
